# Reference: US8946200B2, “Pharmaceutically active nanosuspensions” (Southwest Research Institute, priority 2006, dated 2015)
# Legend:
# [1] = Particle size distribution of the nanoparticle suspension (Beckman Coulter PCS Submicron Particle Size Analyzer); assay type: physicochemical; conditions: suspension of TCO in PBS pH 7.4, 0.5 mg/mL (FIG. 1)
# Procedure: The particle size of the pharmaceutically active compound in the nanosuspension may be in the range of 100 nm to 1000 nm, including all values and increments therein, such as in the range of 250 nm to 1,000 nm, etc. Illustrated in FIG. 1 is an exemplary embodiment of a numerical particle size distribution of suspension of TCO in PBS having a pH of 7.4 and at a concentration of 0.5 mg/mL. […] In addition, the highest relative number percent of particles fall in the range of about 450-525 nm. Such particle size determination may be accomplished on a Beckman Coulter PCS Submicron Particle Size Analyzer. Accordingly, a nanosuspension herein may be understood as any liquid medium containing pharmaceutically active compounds having particles with a size of less than or equal to about 1000 nm.
# (§1) A solution of TCO (1 mg) in hexafluoroisopropanol (HFIP) (0.5 mL) was prepared and added slowly into a magnetically stirred into phosphate buffered saline (PBS) (2 mL) having a pH of 7.4. The mixture was stirred uncovered in a fume hood for up to 24 hours. FIG. 1 illustrates the particle size distribution of suspension of TCO in pH 7.4 PBS at 0.5 mg/mL concentration. […] The clear nanoparticle suspension was further concentrated in a vacuum oven to about 1.5 mg/mL.
# [2] = Concentration of the nanosuspension and appearance / physical stability; assay type: physicochemical
# Procedure: as §1
# A solution of TCO (1 mg) in hexafluoroisopropanol (0.5 mL) was prepared and added slowly into a magnetically stirred deionized water (2 mL). The mixture was stirred uncovered in a fume hood for 3 hours and further concentrated in a vacuum oven. The nanoparticle suspension in deionized water, however, could only be concentrated to about 0.6 mg/mL of concentration before growing micron-sized crystals.
substance,measurement,setting,value
triamcinolone [TCO],particle size range with the highest relative number percent of particles,[1],450-525 nm
same,appearance of nanosuspension,"[2]; 1.0 mg/ML, precipitating 2 mg/0.5 mL TCO/HFIP into 2 mL PBS",cloudy solution
same,concentration to which the clear nanoparticle suspension was further concentrated,"[2]; PBS pH 7.4, 1 mg TCO/0.5 mL HFIP into 2 mL PBS, vacuum oven",about 1.5 mg/mL
same,concentration reached before growing micron-sized crystals,"[2]; deionized water, 1 mg TCO/0.5 mL HFIP into 2 mL water, vacuum oven",about 0.6 mg/mL
